Source: the supplement of paper PMC13380429

Legend:
[1] = test system: A549-ACE2 infected with SARS-CoV-2; assay: cell count relative to DMSO; higher = less toxic; conditions: 24 h
Caco-2 [2] = assay: cell viability relative to DMSO; higher = less toxic; conditions: 72 h
Calu-3 [3] = assay: as above; conditions: 72 h
HepG2 [4] = assay: as above; conditions: 72 h
Vero E6 [5] = assay: as above; conditions: 72 h
[6] = test system: A549-ACE2 infected with SARS-CoV-2; assay: SARS-CoV-2 infection rate relative to DMSO; higher = more infection; conditions: 24 h
A549-ACE2 [7] = assay: phospholipidosis EC50; higher = less potent phospholipidosis inducer
A549-ACE2 [8] = assay: drug-induced phospholipidosis relative to tamoxifen; higher = more phospholipidosis
[9] = test system: A549-ACE2 infected with SARS-CoV-2; assay: morphology score (similarity to uninfected cells); higher = more like uninfected cells; conditions: 24 h
Caco-2 [10] = assay: relative viability EC50 (midpoint between 100% and the lowest measured viability); higher = less toxic; conditions: 72 h
Calu-3 [11] = assay: as above; conditions: 72 h
HepG2 [12] = assay: as above; conditions: 72 h
Vero E6 [13] = assay: as above; conditions: 72 h
Caco-2 [14] = assay: drug sensitivity score (DSS) for viability; higher = more toxic; extreme values may be limits of the assay; conditions: 72 h
Calu-3 [15] = assay: as above; conditions: 72 h
HepG2 [16] = assay: as above; conditions: 72 h
Vero E6 [17] = assay: as above; conditions: 72 h
U2OS [18] = assay: cell viability relative to DMSO; higher = less toxic; conditions: 72 h
U2OS [19] = assay: drug sensitivity score (DSS) for viability; higher = more toxic; extreme values may be limits of the assay; conditions: 72 h
U2OS [20] = assay: relative viability EC50 (midpoint between 100% and the lowest measured viability); higher = less toxic; conditions: 72 h

Cc1ncc(NC(=O)c2ccc(CN3CCN(C)CC3)c(C(F)(F)F)c2)cc1Nc1nccc(-c2cccnc2)n1 [flumatinib]
Conditions | SARS-CoV-2 infection rate [%] | cell count [%] | cell viability [%] | morphology score | phospholipidosis EC50 [µM]
A549-ACE2 [7], 24 h | – | – | – | – | 3.17
A549-ACE2 [7], 48 h | – | – | – | – | 4.74
A549-ACE2 [7], 72 h | – | – | – | – | 5.39
Caco-2 [2], 1 nM | – | – | 105 | – | –
Caco-2 [2], 10 nM | – | – | 107 | – | –
Caco-2 [2], 100 nM | – | – | 101 | – | –
Caco-2 [2], 1000 nM | – | – | 95.5 | – | –
Caco-2 [2], 10000 nM | – | – | 83.2 | – | –
Calu-3 [3], 1 nM | – | – | 104 | – | –
Calu-3 [3], 10 nM | – | – | 92.7 | – | –
Calu-3 [3], 100 nM | – | – | 102 | – | –
Calu-3 [3], 1000 nM | – | – | 100 | – | –
Calu-3 [3], 10000 nM | – | – | 93.1 | – | –
HepG2 [4], 1 nM | – | – | 96.4 | – | –
HepG2 [4], 10 nM | – | – | 108 | – | –
HepG2 [4], 100 nM | – | – | 102 | – | –
HepG2 [4], 1000 nM | – | – | 93.5 | – | –
HepG2 [4], 10000 nM | – | – | 39.9 | – | –
Vero E6 [5], 1 nM | – | – | 95.8 | – | –
Vero E6 [5], 10 nM | – | – | 101 | – | –
Vero E6 [5], 100 nM | – | – | 99.3 | – | –
Vero E6 [5], 1000 nM | – | – | 97.4 | – | –
Vero E6 [5], 10000 nM | – | – | 84.3 | – | –
[1], 0.3 µM | – | 105 | – | – | –
[1], 3 µM | – | 120 | – | – | –
[1], 10 µM | – | 124 | – | – | –
[1], 30 µM | – | 117 | – | – | –
[6], 0.3 µM | 96 | – | – | – | –
[6], 3 µM | 59 | – | – | – | –
[6], 10 µM | 45 | – | – | – | –
[6], 30 µM | 19 | – | – | – | –
[9], 0.3 µM | – | – | – | 0.25 | –
[9], 3 µM | – | – | – | 0.65 | –
[9], 10 µM | – | – | – | 0.69 | –
[9], 30 µM | – | – | – | 0 | –

drug-induced phospholipidosis [%], A549-ACE2 [8]
Conditions | 0.3 µM | 0.833333 µM | 3.33333 µM | 6.66667 µM | 10 µM | 30 µM
24 h | 4.03 | 13.9 | 49.2 | 98.5 | 106 | 5.86
48 h | 3.51 | 7.4 | 29.5 | 74.1 | 89.4 | –
72 h | 4.57 | 8.79 | 24.7 | 66.2 | 84.5 | –

Conditions | drug sensitivity score | relative viability EC50 [µM]
Caco-2 [10] | – | > 10
Caco-2 [14] | 0.8 | –
Calu-3 [11] | – | > 10
Calu-3 [15] | 0 | –
HepG2 [12] | – | 2.28
HepG2 [16] | 4.3 | –
Vero E6 [13] | – | > 10
Vero E6 [17] | 0.5 | –

Cc1c(-c2ccc(O)cc2)n(Cc2ccc(OCCN3CCCCCC3)cc2)c2ccc(O)cc12 [bazedoxifene]
Conditions | SARS-CoV-2 infection rate, [6] [%] | cell count, [1] [%] | cell viability, Caco-2 [2] [%] | cell viability, Calu-3 [3] [%] | cell viability, HepG2 [4] [%] | cell viability, U2OS [18] [%] | cell viability, Vero E6 [5] [%] | morphology score, [9]
1 nM | – | – | 104 | 96.3 | 95.2 | 104 | 102 | –
10 nM | – | – | 95.3 | 91.5 | 106 | 101 | 105 | –
0.1 µM | 97 | 99 | – | – | – | – | – | 0.02
100 nM | – | – | 95.4 | 105 | 95.3 | 104 | 98.3 | –
0.3 µM | 103 | 105 | – | – | – | – | – | 0.05
1 µM | 85 | 103 | – | – | – | – | – | 0.36
1000 nM | – | – | 91.5 | 97.6 | 98.1 | 99.2 | 100 | –
3 µM | 22 | 122 | – | – | – | – | – | 0.83
10000 nM | – | – | 60.4 | 11.6 | 12.3 | 53 | 18.1 | –

drug-induced phospholipidosis [%], A549-ACE2 [8]
Conditions | 0.3 µM | 0.833333 µM | 3.33333 µM | 6.66667 µM | 10 µM
24 h | 0.63 | 6.49 | 23.7 | 37.6 | 4.23
48 h | 0.36 | 3.68 | 24.9 | 44.4 | 36.7
72 h | 0.978 | 3.09 | 19.4 | 39.6 | 52.6

Conditions | drug sensitivity score | relative viability EC50 [µM]
Caco-2 [14] | 3.3 | –
Calu-3 [11] | – | 2.97
Calu-3 [15] | 5.2 | –
HepG2 [12] | – | 3.01
HepG2 [16] | 5.1 | –
U2OS [19] | 2.5 | –
Vero E6 [13] | – | 3.18
Vero E6 [17] | 4.5 | –

Nc1nc(N)c(N=O)c(OCC2CCCCC2)n1 [NU-6027]
Conditions | SARS-CoV-2 infection rate, [6] [%] | cell count, [1] [%] | cell viability, Caco-2 [2] [%] | cell viability, Calu-3 [3] [%] | cell viability, HepG2 [4] [%] | cell viability, U2OS [18] [%] | cell viability, Vero E6 [5] [%] | morphology score, [9]
1 nM | – | – | 100 | 101 | 87.7 | 104 | 96 | –
10 nM | – | – | 97.5 | 117 | 92.7 | 101 | 105 | –
100 nM | – | – | 96.6 | 106 | 96.4 | 104 | 99.8 | –
0.3 µM | 104 | 100 | – | – | – | – | – | -0.13
1000 nM | – | – | 100 | 105 | 89.9 | 101 | 95 | –
3 µM | 68 | 103 | – | – | – | – | – | 0.59
10 µM | 52 | 107 | – | – | – | – | – | 0.62
10000 nM | – | – | 46 | 81.4 | 58.4 | 70.7 | 89.7 | –
30 µM | 41 | 100 | – | – | – | – | – | 0.46

drug-induced phospholipidosis [%], A549-ACE2 [8]
Conditions | 0.3 µM | 0.833333 µM | 3.33333 µM | 6.66667 µM | 10 µM | 30 µM
24 h | 1.28 | -0.02 | 2.45 | 3.35 | 2.35 | 28.5
48 h | 2.37 | -0.39 | -0.5 | -1.38 | 1.26 | –
72 h | 1.92 | -1.07 | -2.27 | -1.09 | -1.29 | –

Conditions | drug sensitivity score | relative viability EC50 [µM]
Caco-2 [10] | – | 3.17
Caco-2 [14] | 2.9 | –
Calu-3 [11] | – | > 10
Calu-3 [15] | 0.3 | –
HepG2 [16] | 3.7 | –
U2OS [19] | 1.2 | –
Vero E6 [13] | – | > 10
Vero E6 [17] | 0 | –

O=C(Nc1ccc(-c2ccncc2)cc1)N[C@H](CO)c1ccccc1
Conditions | SARS-CoV-2 infection rate, [6] [%] | cell count, [1] [%] | cell viability, Caco-2 [2] [%] | cell viability, HepG2 [4] [%] | cell viability, U2OS [18] [%] | cell viability, Vero E6 [5] [%] | morphology score, [9]
1 nM | – | – | 99.4 | 96.7 | 98.6 | 97 | –
10 nM | – | – | 98.6 | 94.7 | 96.3 | 98.2 | –
0.1 µM | 98 | 105 | – | – | – | – | 0.27
100 nM | – | – | 96.1 | 105 | 99.2 | 98 | –
0.3 µM | 101 | 112 | – | – | – | – | 0.23
1 µM | 94 | 106 | – | – | – | – | 0.26
1000 nM | – | – | 95.3 | 102 | 97.5 | 94.2 | –
3 µM | 110 | 91 | – | – | – | – | -0.17
10000 nM | – | – | 96.4 | 84.8 | 94.7 | 77 | –

drug-induced phospholipidosis [%], A549-ACE2 [8]
Conditions | 0.3 µM | 0.833333 µM | 3.33333 µM | 6.66667 µM | 10 µM | 30 µM
24 h | 3.51 | 2.55 | 2.66 | 3.66 | 1.91 | 3.72
48 h | 2.8 | 0.36 | -0.35 | 3.11 | 1.09 | 6.28
72 h | 2.59 | -2.02 | -0.767 | -0.334 | -0.186 | 6.14

Conditions | drug sensitivity score | relative viability EC50 [µM]
Caco-2 [10] | – | > 10
Caco-2 [14] | 0 | –
HepG2 [12] | – | > 10
HepG2 [16] | 0.2 | –
U2OS [19] | 0 | –
U2OS [20] | – | > 10
Vero E6 [13] | – | > 10
Vero E6 [17] | 1.6 | –
